This note sets out measurements from PubChem BioAssay (NCI).

The structures appear in SMILES notation. Where “and” joins values, the source holds several entries; their conditions need not be identical. Equal values may be shown once.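 Cells were grown in 96-well plates and exposed to each compound for 48 hours at five concentrations; endpoints were interpolated linearly between bracketing concentrations, or set to the highest concentration if not reached. GI50 is the concentration that inhibits growth by half. TGI: total growth inhibition.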

What all share (experiment): growth of human tumour cells (NCI), 48 h
Test [1] concerns SNB-75 CNS.
Test [2] concerns MDA-MB-231 breast.
In test [3] the test system is EKVX NSCLC.
The test system of test [4] is MCF7 breast.
The subject of test [5] is HT29 colon.
For test [6], the system named is OVCAR-8 ovarian.
Test [7] has as its system MALME-3M melanoma.
Test [8] deals with ACHN renal.
The test system of test [9] is HS 578T breast.
Test [10] relates to SF-539 CNS.

On to `CC1=C(C(=O)OCc2ccccc2)C(c2ccc3c(c2)OCO3)n2c(nc3ccccc32)N1` (stereo not given), for which the GI50 in test [1] was 215 nM; in [2], over 92600 nM; in [3], 692 nM; in test [4] it was 236 nM; in test [5], 352 nM; in [6], 628 nM. For the same molecule, the GI50 is 370 nM in test [7], 630 nM in [8], 299 nM in test [9] and 340 nM in [10]. For the same molecule, the TGI in test [1] was 0.801 µM; in test [2], over 100 µM; in [3], over 100 µM; in [4], over 100 µM; in test [5] it was over 100 µM; in test [6], over 100 µM. Besides, the TGI in test [7] is over 100 µM; in test [8], over 100 µM; in test [9], over 48.8 µM; in test [10] it was over 100 µM.
In the case of `N=C(N)c1nn(C2OC(CO)C(O)C2O)c2nc[nH]c(=O)c12` (stereo not given), the GI50 was 1480 nM in test [1]; 248 nM in test [2]; 493 nM in [3]; 482 nM in [4]; 2110 nM in test [5]; 435 nM in [6]. Further, the GI50 in test [7] is 206 nM; in test [8], 292 nM; in test [9] it was 376 nM; in [10], 367 nM. The TGI is 7.27 µM in [1]; 0.778 µM in test [2]; 3.95 µM in test [3]; 5.09 µM in [4]; 11.7 µM in test [5]; 7.22 µM in [6]. The TGI turned out to be 0.612 µM in test [7], 1.99 µM in test [8], 2.27 µM in [9] and 1.75 µM in test [10].
For the molecule `Cc1ccc(C(=O)Nc2ccc(S(=O)(=O)O)c3cc(S(=O)(=O)O)cc(S(=O)(=O)O)c23)cc1NC(=O)c1cccc(N)c1`, the TGI in test [1], in test [2], in test [3], in test [4], in [5] and in [6] was over 100 µM throughout. The TGI in [7], in [8], in test [9] and in [10] was over 100 µM each time.
For `CC12CCC(=O)C=C1CCC1C2CCC2(C)C(C(=O)Cn3cnc4c(=S)nc[nH]c43)CCC12` (stereo not given), the TGI in test [1] is 36.8 µM; in test [2], over 100 µM; in test [3], over 100 µM; in [4] it was 36.7 µM; in test [5], over 100 µM; in [6] it was over 100 µM. Moreover, the TGI in [7], in test [8], in [9] and in test [10] was over 100 µM throughout.
In the case of `CC(C)(C(=O)NN)c1ccccc1`, the TGI in test [1], in test [2], in test [3], in [4], in test [5] and in [6] was over 100 µM in each case. The TGI in test [7], in [8], in test [9] and in test [10] was over 100 µM in each case.
As for `CCN1C(=O)N(CC)C2C1NN=c1s/c(=C3\C(=O)N(C(C)C)c4ccccc43)c(=O)n12` (stereo not given), the GI50 is 317 nM in test [1]; 434 nM in test [2]; 606 nM in test [3]; 396 nM in test [4]; 350 nM in test [5]; 620 nM in test [6]. For the same molecule, the GI50 in [7] is 1180 nM; in test [8] it was 525 nM; in test [9], 336 nM; in test [10] it was 240 nM. Further, the TGI in test [1] was 20.9 µM; in test [2] it was 15.4 µM; in test [3] it was over 100 µM; in test [4] it was over 100 µM; in [5], over 100 µM; in test [6] it was over 53.4 µM. Further, the TGI is over 100 µM in [7], over 42.2 µM in test [8], 40.3 µM in test [9] and 0.706 µM in [10].
On to `O=C(Nc1cccc(Cl)c1)Nc1ncc(CCNc2ncnc3ccsc23)s1`, for which the GI50 in test [1] was 1620 nM and 1020 nM; in test [2] it was 3380 nM and 2670 nM; in [3], 3130 nM and 3140 nM; in test [4], 1170 nM and 1310 nM; in test [5] it was 3330 nM and 3030 nM; in [6] it was 1680 nM and 1220 nM. Further, the GI50 in [7] was 3230 nM and 4070 nM; in test [8], 2300 nM and 2060 nM; in test [9] it was 2920 nM and 640 nM; in [10], 635 nM and 530 nM. Further, the TGI is 19.5 µM and > 10 µM in [1]; 17.4 µM and > 10 µM in test [2]; 19 µM and > 10 µM in [3]; 15 µM and > 10 µM in test [4]; 23.1 µM and > 10 µM in [5]; 9.64 µM and 5.31 µM in test [6]. Moreover, the TGI in test [7] is 26 µM and > 10 µM; in test [8], 16.8 µM and > 10 µM; in test [9] it was 39.7 µM and > 10 µM; in [10], 16.9 µM and > 10 µM.
`CC(=O)OC1c2ccccc2CC2(OC(C)=O)c3ccccc3C12` (stereo not given): the TGI in [1], in test [2], in [3], in [4], in [5] and in test [6] was over 100 µM in each case. Besides, the TGI in test [7], in [8], in test [9] and in test [10] was over 100 µM throughout.
For `CC12CCC(=O)C(O1)C1C(=O)c3cc4ccccc4cc3C(=O)C12` (stereo not given), the GI50 was 29200 nM in test [1]; 14900 nM in test [2]; 23400 nM in test [3]; 12600 nM in [4]; 21000 nM in test [5]; 22100 nM in test [6]. Also, the GI50 in test [7] was 12900 nM; in [8] it was 15800 nM; in test [9], 28700 nM; in [10], 21800 nM. Further, the TGI was over 100 µM in test [1]; 35.6 µM in [2]; 72.2 µM in [3]; 33 µM in test [4]; 51.1 µM in [5]; 54.9 µM in test [6]. The TGI in test [7] amounted to 29.5 µM; in test [8], 31.1 µM; in test [9], 73.1 µM; in [10], 59.3 µM.
